Here are results for eleven compounds from US20240383911A1, “AZAINDAZOLE MACROCYCLE COMPOUNDS AND USES THEREOF” (BROADENBIO CO., LTD, priority 2021, published 2024).

One experiment concerns the target KDR (Homo sapiens, UniProt P35968). The experiment is described as follows: KDR kinase activity inhibition test (HTRF). In kind it is biochemical. To be noted: read-out: IC50, inhibitory effects on KDR kinase activity. On the procedure: (§1) Tested compounds: compounds prepared in the Examples of this invention.
(§2) Prepare compound stock solution: dissolve the test compound in 100% DMSO to make a 10 mM stock solution. Dilute the stock solution of the test compound by 5 times with 100% DMSO, make a 4-fold equal dilution in a 96-well dilution plate, add 1 μL of the compound to 39 μL of kinase reaction buffer (1×kinase buffer, 5 mM MgCl2, 1 mM DTT), and shake on a microplate shaker for 20 minutes. 4×Positive control (4 μL of positive compound solution of the starting concentration, add 196 μL of kinase buffer) and 4×negative control (4 μL of 100% DMSO, add 196 μL of kinase buffer).
(1) Use 1×kinase reaction buffer to prepare 2.5×KDR kinase solution (250 μM), transfer 2 μL of the kinase solution to the 384 reaction plate, and add 1 μL of the test compound solution of gradient concentration to the 384 reaction plate (Greiner, Cat #784075), centrifuge for 1 minute (1000 rpm), and incubate at 25° C. for 10 minutes.
(§3) (2) Use 1×kinase reaction buffer to prepare 2.5×TK-substrate-biotin (2.5 μM) and 2.5×ATP (2.5 μM), mix well, and add 2 μL of the TK-substrate-biotin/ATP solution to the 384 reaction plate, centrifuge for 30 seconds (1000 rpm), and incubate at 25° C. for 40 minutes.
(§4) (3) Use HTRF detection buffer to prepare 2×Sa-XL 665 (125 nM) and 1×TK-antibody-Cryptate. Add 5 μL of a mixture of Sa-XL 665 and TK-antibody-Cryptate solutions to each well, centrifuge for 30 seconds (1000 rpm), and react at room temperature for 1 hour.
(§5) (4) The fluorescence signal is read using a Biotek multi-function plate reader, and the IC50 (half inhibitory concentration) of the compound is obtained using a four-coefficient nonlinear fitting formula.
For orientation: TR-FRET usually uses a lanthanide donor and a delayed reading to cut background.

Another experiment has as its target T1, FLT3 (Homo sapiens, UniProt P36888).
T1 sequence (P36888 27-993): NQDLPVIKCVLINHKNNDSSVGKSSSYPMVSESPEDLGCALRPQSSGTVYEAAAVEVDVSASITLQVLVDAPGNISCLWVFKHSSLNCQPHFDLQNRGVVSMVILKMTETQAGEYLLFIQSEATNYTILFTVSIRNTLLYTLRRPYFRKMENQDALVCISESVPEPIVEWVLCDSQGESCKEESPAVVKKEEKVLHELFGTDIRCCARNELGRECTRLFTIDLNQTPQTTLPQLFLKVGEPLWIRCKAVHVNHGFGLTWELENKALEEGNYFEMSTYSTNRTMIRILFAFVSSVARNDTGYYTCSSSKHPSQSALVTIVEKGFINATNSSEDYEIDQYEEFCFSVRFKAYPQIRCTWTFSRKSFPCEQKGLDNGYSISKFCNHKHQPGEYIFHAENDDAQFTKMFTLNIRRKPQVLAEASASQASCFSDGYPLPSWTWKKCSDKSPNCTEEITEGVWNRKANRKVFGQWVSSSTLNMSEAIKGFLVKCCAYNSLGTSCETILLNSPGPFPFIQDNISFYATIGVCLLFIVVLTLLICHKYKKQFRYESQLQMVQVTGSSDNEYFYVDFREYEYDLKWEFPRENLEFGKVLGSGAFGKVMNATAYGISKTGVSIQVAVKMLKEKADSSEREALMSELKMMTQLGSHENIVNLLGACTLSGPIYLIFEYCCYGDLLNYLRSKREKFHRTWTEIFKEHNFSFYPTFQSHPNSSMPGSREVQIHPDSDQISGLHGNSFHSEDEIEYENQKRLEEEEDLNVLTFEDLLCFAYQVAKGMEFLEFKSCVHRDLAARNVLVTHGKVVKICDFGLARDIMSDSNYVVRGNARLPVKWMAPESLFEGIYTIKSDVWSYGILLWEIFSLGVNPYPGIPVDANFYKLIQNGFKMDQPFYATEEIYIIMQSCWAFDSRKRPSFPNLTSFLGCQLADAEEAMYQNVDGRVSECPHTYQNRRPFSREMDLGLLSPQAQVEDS
As to the kind of experiment: FLT3 kinase activity inhibition test (HTRF). In kind it is biochemical. To be noted: read-out: IC50, inhibitory effects on FLT3 kinase activity. On the procedure: as §1, §2
(1) Use 1×kinase reaction buffer to prepare 2.5×FLT3 kinase solution (160 μM), transfer 2 μL of the kinase solution to the 384 reaction plate, and add 1 μL of the test compound solution of gradient concentration to the 384 reaction plate (Greiner, Cat #784075), centrifuge for 1 minute (1000 rpm), and incubate at 25° C. for 10 minutes.
as §3, §4, §5

For another experiment, the system named is Human Jurkat-E6-1 cells. As to the kind of experiment: Detection of IL-2 production by Jurkat cells using ELISA. To be noted: anti-CD3/anti-CD28 stimulation 24 hours, read-out: Percentage of the amount of IL-2 secreted by compound treated vs DMSO-treated cells; for activity at 1 µM: tested compound 1.0 μM; for activity at 0.33 µM: tested compound 0.33 μM. In kind it is cell-based. On the procedure:
as §1
Human Jurkat-E6-1 cells were incubated with various concentrations of tested compounds for 30 minutes in a humidified incubator at 37° C. and 5% CO2. Cells were transferred to cell culture plates pre-coated with anti-human CD3 antibody, then soluble anti-human CD28 antibody was added, and cells were stimulated for 24 hours at 37° C. and 5% CO2 in a humidified incubator. The cell culture medium was collected after centrifugation, and was then transferred to a 96-well transparent microtiter plate (Thermo) pre-coated with anti-human IL-2 antibody, incubated at room temperature for 2 hours with gently shaking, washed with washing buffer for 4 times, and then followed the ELISA MAX Deluxe Set Human IL-2 (BioLegend) kit procedures, used a microplate reader (Molecular Device, i3X) to read the GD value at 450 nm. The best standard curve was selected by the microplate reader application software, and the corresponding concentration was calculated according to the GD value of the standard. Results are expressed as a percentage (%) of the amount of IL-2 secreted by compound-treated vs DMSO-treated cells.

For another experiment, the target named is HPK1 (Homo sapiens, UniProt Q92918). The experiment is described as follows: HPK1 kinase activity inhibition test (ADP-Glo, luminescence). It counts as biochemical. To be noted: 2 μM ATP, 5 nM HPK1, read-out: IC50, inhibitory effects on HPK1 kinase activity. A digest of the protocol: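 Autophosphorylation assay without added substrate: HPK1 preincubated with compound 10 min at 25 °C, then ATP added for 60 min at 25 °C; final DMSO 0.5%. ADP measured by ADP-Glo luminescence; IC50 from four-parameter nonlinear fit.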
On the technique in general: ADP-Glo first removes unused ATP, then detects ADP through luciferase.

SMILES strings stand for the structures.

Sequence of HPK1 (Q92918 whole entry): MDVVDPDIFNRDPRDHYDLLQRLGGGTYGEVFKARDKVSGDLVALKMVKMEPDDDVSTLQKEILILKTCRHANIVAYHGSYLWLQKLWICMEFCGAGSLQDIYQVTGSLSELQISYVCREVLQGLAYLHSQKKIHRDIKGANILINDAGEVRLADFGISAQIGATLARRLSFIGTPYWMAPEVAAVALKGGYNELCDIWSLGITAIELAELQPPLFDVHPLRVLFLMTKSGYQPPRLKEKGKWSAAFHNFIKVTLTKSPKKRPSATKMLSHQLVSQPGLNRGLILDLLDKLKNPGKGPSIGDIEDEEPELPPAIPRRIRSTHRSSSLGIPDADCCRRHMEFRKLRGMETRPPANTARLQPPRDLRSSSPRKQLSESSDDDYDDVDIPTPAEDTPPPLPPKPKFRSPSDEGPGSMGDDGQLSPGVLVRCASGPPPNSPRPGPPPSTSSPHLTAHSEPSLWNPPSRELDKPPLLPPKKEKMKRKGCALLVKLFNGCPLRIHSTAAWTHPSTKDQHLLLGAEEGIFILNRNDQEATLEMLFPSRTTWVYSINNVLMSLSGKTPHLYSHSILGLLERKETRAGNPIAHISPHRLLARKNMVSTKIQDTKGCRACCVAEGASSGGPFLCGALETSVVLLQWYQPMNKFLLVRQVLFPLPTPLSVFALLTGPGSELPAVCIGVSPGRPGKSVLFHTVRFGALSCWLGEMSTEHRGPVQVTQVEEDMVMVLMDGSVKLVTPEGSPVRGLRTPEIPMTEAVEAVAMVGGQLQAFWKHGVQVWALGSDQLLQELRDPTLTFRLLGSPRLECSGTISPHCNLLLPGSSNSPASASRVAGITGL
Sequence of KDR (P35968 20-1356): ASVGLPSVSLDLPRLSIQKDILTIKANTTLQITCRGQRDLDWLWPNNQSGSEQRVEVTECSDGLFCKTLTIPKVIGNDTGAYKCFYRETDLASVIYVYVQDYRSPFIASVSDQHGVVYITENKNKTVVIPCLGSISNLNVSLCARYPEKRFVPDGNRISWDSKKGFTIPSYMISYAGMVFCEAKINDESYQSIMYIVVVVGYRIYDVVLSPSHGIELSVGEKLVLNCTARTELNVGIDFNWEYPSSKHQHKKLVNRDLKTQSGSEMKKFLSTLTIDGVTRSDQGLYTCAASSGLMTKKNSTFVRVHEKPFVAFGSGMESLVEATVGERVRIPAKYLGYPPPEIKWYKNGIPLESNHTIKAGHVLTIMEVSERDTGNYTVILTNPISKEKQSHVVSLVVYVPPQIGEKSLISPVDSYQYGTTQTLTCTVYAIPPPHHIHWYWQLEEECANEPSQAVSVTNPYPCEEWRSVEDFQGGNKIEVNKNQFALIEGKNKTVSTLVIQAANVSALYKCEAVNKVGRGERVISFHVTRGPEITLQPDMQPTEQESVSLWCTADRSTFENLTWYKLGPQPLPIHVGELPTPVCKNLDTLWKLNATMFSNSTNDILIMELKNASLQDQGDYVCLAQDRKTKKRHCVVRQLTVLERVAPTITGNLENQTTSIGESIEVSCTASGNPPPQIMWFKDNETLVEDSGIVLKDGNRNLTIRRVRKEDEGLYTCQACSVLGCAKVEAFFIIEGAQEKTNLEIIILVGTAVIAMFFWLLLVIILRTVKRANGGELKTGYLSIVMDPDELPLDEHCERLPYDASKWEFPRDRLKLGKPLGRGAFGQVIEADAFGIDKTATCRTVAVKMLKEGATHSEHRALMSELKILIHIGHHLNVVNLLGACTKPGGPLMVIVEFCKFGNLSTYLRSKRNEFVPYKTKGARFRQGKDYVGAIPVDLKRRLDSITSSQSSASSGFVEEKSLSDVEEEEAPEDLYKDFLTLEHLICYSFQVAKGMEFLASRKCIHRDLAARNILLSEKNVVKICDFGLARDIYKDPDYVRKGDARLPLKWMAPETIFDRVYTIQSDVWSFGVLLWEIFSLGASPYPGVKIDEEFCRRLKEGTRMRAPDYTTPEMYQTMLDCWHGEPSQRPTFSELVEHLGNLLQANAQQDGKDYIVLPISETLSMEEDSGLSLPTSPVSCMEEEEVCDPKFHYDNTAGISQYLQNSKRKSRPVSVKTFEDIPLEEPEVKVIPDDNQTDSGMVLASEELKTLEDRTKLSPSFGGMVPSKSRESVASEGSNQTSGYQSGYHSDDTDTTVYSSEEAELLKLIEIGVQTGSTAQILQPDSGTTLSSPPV

As a reminder, the IC50 is the point on the concentration scale where inhibition reaches its midpoint. As for `Fc1cccc2c1-c1cc3c(n[nH]c3cn1)-c1ccc(N3CCNCC3)c(c1)OCCCOC2` [Compound 10, 17-fluoro-5-(piperazin-1-yl)-7,11-dioxa-20,23,24-triazapentacyclo[17.5.2.1^2,6.0^13,18.0^22,25]heptacosa-1(24),2(27),3,5,13,15,17,19,21,25-decaene], the IC50 on KDR was 5 to 50 nM; on FLT3, at most 5 nM; on HPK1, at most 5 nM. The activity at 1 µM in the experiment with Human Jurkat-E6-1 cells stood at 298%.

As to `OCCN1CCN(c2ccc3cc2OCCCOCc2cccc(F)c2-c2cc4c-3n[nH]c4cn2)CC1` [Compound 12, 17-fluoro-5-(4-(2-hydroxyethyl)piperazin-1-yl)-7,11-dioxa-20,23,24-triazapentacyclo[17.5.2.1^2,6.0^13,18.0^22,25]heptacosa-1(24),2(27),3,5,13,15,17,19,21,25-decaene], the half-inhibitory concentration (IC50) is 5 to 50 nM on KDR, at most 5 nM on FLT3 and at most 5 nM at HPK1.

Regarding `Fc1cccc2c1-c1cc3c(n[nH]c3cn1)-c1ccc(N3CCN4CCOC[C@H]4C3)c(c1)OCCCO2` [Compound 102, 5-[(9aR)-octahydropyrazino[2,1-c][1,4]oxazin-8-yl]-16-fluoro-7,11-dioxa-19,22,23-triazapentacyclo[16.5.2.1^2,6.0^12,17.0^21,24]hexacosa-1(23),2,4,6(26),12(17),13,15,18,20,24-decaene], the IC50 on KDR, at FLT3 and on HPK1 was at most 5 nM each time. For the same compound, the activity at 1 µM with Human Jurkat-E6-1 cells was determined as 702%.

For the compound `O=C1OC[C@@H]2CN(c3ccc4cc3OCCCOCc3cccc(F)c3-c3cc5c-4n[nH]c5cn3)CCN12` [Compound 124, (8aS)-7-{17-fluoro-7,11-dioxa-20,23,24-triazapentacyclo[17.5.2.1^2,6.0^13,18.0^22,25]heptacosa-1(24),2,4,6(27),13(18),14,16,19,21,25-decaen-5-yl}-hexahydro-1H-[1,3]oxazolo[3,4-a]pyrazin-3-one], in the experiment with Human Jurkat-E6-1 cells, the activity at 1 µM is 630%. The concentration for half-maximal inhibition (IC50) on HPK1 is at most 5 nM.

For the compound `CN1C[C@H]2CN(c3ccc4cc3OCCCOCc3cccc(F)c3-c3cc5c-4n[nH]c5cn3)CCN2CC1=O` [Compound 127, (9aR)-8-{17-fluoro-7,11-dioxa-20,23,24-triazapentacyclo[17.5.2.1^2,6.0^13,18.0^22,25]heptacosa-1(24),2,4,6(27),13(18),14,16,19,21,25-decaen-5-yl}-2-methyl-octahydro-1H-[1,4]diazino[1,2-a]pyrazin-3-one], the activity at 0.33 µM in the experiment with Human Jurkat-E6-1 cells was determined as 475%. Further, the 50% inhibitory concentration (IC50) on HPK1 is at most 5 nM.

For the compound `CN1C[C@@H]2CN(c3ccc4cc3OCCCOCc3cccc(F)c3-c3cc5c-4n[nH]c5cn3)CCN2CC1=O` [Compound 128, (9aS)-8-{17-fluoro-7,11-dioxa-20,23,24-triazapentacyclo[17.5.2.1^2,6.0^13,18.0^22,25]heptacosa-1(24),2,4,6(27),13(18),14,16,19,21,25-decaen-5-yl}-2-methyl-octahydro-1H-[1,4]diazino[1,2-a]pyrazin-3-one], in the experiment on Human Jurkat-E6-1 cells, the activity at 0.33 µM came out at 452%. For the same compound, the IC50 at HPK1 is at most 5 nM.

Take `OCCN1C2CCC1CN(c1ccc3cc1OCCCOc1cccc(F)c1-c1cc4c-3n[nH]c4cn1)C2` [Compound 145, 2-(3-{16-fluoro-7,11-dioxa-19,22,23-triazapentacyclo[16.5.2.1^2,6.0^12,17.0^21,24]hexacosa-1(23),2,4,6(26),12(17),13,15,18,20,24-decaen-5-yl}-3,8-diazabicyclo[3.2.1]octan-8-yl)ethan-1-ol]: the activity at 1 µM in the experiment on Human Jurkat-E6-1 cells worked out at 512%. In addition, on HPK1, the half-inhibitory concentration (IC50) is at most 5 nM.

`Fc1cccc2c1-c1cc3c(n[nH]c3cn1)-c1ccc(N3CC4CC(C3)N4C3COC3)c(c1)OCCCO2` [Compound 146, 16-fluoro-5-[6-(oxetan-3-yl)-3,6-diazabicyclo[3.1.1]heptan-3-yl]-7,11-dioxa-19,22,23-triazapentacyclo[16.5.2.1^2,6.0^12,17.0^21,24]hexacosa-1(23),2,4,6(26),12(17),13,15,18,20,24-decaene]: in the experiment on Human Jurkat-E6-1 cells, the activity at 1 µM is 476%. Besides, the IC50 at HPK1 was at most 5 nM.

For the compound `Fc1cccc2c1-c1cc3c(n[nH]c3cn1)-c1ccc(N3CC4CC(C3)N4CC3CCOCC3)c(c1)OCCCO2` [Compound 147, 16-fluoro-5-{6-[(oxan-4-yl)methyl]-3,6-diazabicyclo[3.1.1]heptan-3-yl}-7,11-dioxa-19,22,23-triazapentacyclo[16.5.2.1^2,6.0^12,17.0^21,24]hexacosa-1(23),2,4,6(26),12(17),13,15,18,20,24-decaene], in the experiment on Human Jurkat-E6-1 cells, the activity at 0.33 µM amounted to 429%. Also, the IC50 at HPK1 was at most 5 nM.

Turning to `CN1C[C@H]2C[C@@H]1CN2c1ccc2cc1OCCCOCc1cccc(F)c1-c1cc3c-2n[nH]c3cn1` [Compound 152, 17-fluoro-5-[(1R,4R)-5-methyl-2,5-diazabicyclo[2.2.1]heptan-2-yl]-7,11-dioxa-20,23,24-triazapentacyclo[17.5.2.1^2,6.0^13,18.0^22,25]heptacosa-1(24),2,4,6(27),13(18),14,16,19,21,25-decaene], in the experiment with Human Jurkat-E6-1 cells, the activity at 0.33 µM was determined as 432%. The IC50 at HPK1 is at most 5 nM.

Take `Fc1cccc2c1-c1cc3c(n[nH]c3cn1)-c1ccc(N3C[C@@H]4C[C@H]3CN4C3COC3)c(c1)OCCCOC2` [Compound 153, 17-fluoro-5-[(1S,4S)-5-(oxetan-3-yl)-2,5-diazabicyclo[2.2.1]heptan-2-yl]-7,11-dioxa-20,23,24-triazapentacyclo[17.5.2.1^2,6.0^13,18.0^22,25]heptacosa-1(24),2,4,6(27),13(18),14,16,19,21,25-decaene]: the activity at 0.33 µM in the experiment on Human Jurkat-E6-1 cells worked out at 369%. Further, on HPK1, the IC50 is at most 5 nM.
